The results in this text go back to US12098145B2 (Libra Therapeutics, Inc., priority 2022, dated 2024).

Structures are written as SMILES.

T1 sequence (Q9GZU1 whole entry): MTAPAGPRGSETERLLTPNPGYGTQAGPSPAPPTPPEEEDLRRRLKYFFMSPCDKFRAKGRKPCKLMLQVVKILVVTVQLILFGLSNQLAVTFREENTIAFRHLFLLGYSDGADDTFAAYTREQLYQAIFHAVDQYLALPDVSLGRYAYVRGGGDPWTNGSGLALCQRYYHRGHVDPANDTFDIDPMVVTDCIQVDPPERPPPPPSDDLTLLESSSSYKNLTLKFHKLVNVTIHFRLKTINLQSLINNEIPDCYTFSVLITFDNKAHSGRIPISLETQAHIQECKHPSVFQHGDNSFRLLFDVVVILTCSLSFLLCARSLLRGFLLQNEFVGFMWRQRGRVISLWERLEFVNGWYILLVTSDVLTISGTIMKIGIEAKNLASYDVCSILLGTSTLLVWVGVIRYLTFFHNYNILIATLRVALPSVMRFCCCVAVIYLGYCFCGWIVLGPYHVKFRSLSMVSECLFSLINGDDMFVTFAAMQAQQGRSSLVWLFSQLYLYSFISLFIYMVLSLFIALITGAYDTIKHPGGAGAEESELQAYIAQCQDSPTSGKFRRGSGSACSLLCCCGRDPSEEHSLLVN

This experiment concerns the target T1, TRPML1 (Homo sapiens, UniProt Q9GZU1).
T1 construct: expressed in transfected cells; host or cells: HEK T-REx cells stably expressing GCaMP6f and TRPML1
Description: Cellular TRPML1 assay (FLIPR, GCaMP6f calcium read-out). Particulars: HEKT-REx/GCaMP6f/TRPML1 cells, FLIPR TETRA, kinetic response over 300 seconds; read-out: TRPML1 FLIPR pEC50 (converted). The class given is cell-based. The protocol: Example A: Cellular TRPML1 Assay
The final clone for the TRPML1 assay is HEKT-REx/GCaMP6f/TRPML1. GCaMP6f is a genetically encoded calcium indicator that is stably expressed in this cell line and used as a fluorescent read-out.
Experiments were performed in 384 MTP format. Cells are seeded at 15000 cells/well in 20 μl/well of Optimem+0.5% FBS without selection antibiotics. Twenty-four hours later, cells are assayed for the response to various compounds using the Ca^2+ sensitive GCaMP6f protein stably expressed in the cells as readout.
The experiment was performed in a 384-well format according to the following procedures: • 24 h after seeding, the cells were pre-incubated at room temperature for about 10 min. • Started the experiment at the FLIPR^TETRA by injecting 10 μL/w of 3× concentrated test compounds and controls in Ca^2+ free Tyrode's buffer. Monitored the kinetic response over a period of 300 seconds. • Final DMSO concentration: 0.5%
Data from FLIPR^TETRA measurements were analyzed with the Genedata Screener© software.
`CC1(C)CN(c2nc(C(=O)Nc3cc(F)c(OC4CCCOC4)c(F)c3)c(CC(F)(F)F)o2)C1` (racemic) [Example 72, N-(3,5-difluoro-4-((tetrahydro-2H-pyran-3-yl)oxy)phenyl)-2-(3,3-dimethylazetidin-1-yl)-5-(2,2,2-trifluoroethyl)oxazole-4-carboxamide]: the EC50 was 10 to 1000 nM.
Next, `O=C(Nc1ccc(OC2CCCC2(F)F)c(F)c1)c1nc(N2Cc3ccccc3C2)oc1CC(F)(F)F` (centres unmarked) [Example 1, N-{4-[(2,2-difluorocyclopentyl)oxy]-3-fluorophenyl}-2-(2,3-dihydro-1H-isoindol-2-yl)-5-(2,2,2-trifluoroethyl)-1,3-oxazole-4-carboxamide]: 10000 to 100000 nM.
As for `N#CC1CN(c2nc(C(=O)Nc3ccc(OC4CCCC4(F)F)c(F)c3)c(CC(F)(F)F)o2)C1` (centres unmarked) [Example 2, 2-(3-cyanoazetidin-1-yl)-N-{4-[(2,2-difluorocyclopentyl)oxy]-3-fluorophenyl}-5-(2,2,2-trifluoroethyl)-1,3-oxazole-4-carboxamide], the EC50 was 1000 to 10000 nM.
With `O=C(Nc1ccc(OC2CCCC2(F)F)c(F)c1)c1nc(N2CCc3ccccc32)oc1CC(F)(F)F` (centres unmarked) [Example 5, N-(4-((2,2-difluorocyclopentyl)oxy)-3-fluorophenyl)-2-(indolin-1-yl)-5-(2,2,2-trifluoroethyl)oxazole-4-carboxamide], the EC50 is 1000 to 10000 nM.
Take `COCC1CCN(c2nc(C(=O)Nc3ccc(OC4CCCC4(F)F)c(F)c3)c(CC(F)(F)F)o2)C1` (centres unmarked) [Example 7, N-(4-((2,2-difluorocyclopentyl)oxy)-3-fluorophenyl)-2-(3-(methoxymethyl)pyrrolidin-1-yl)-5-(2,2,2-trifluoroethyl)oxazole-4-carboxamide]: the EC50 is 1000 to 10000 nM.
Next, `COC1CN(c2nc(C(=O)Nc3ccc(OC4CCCC4(F)F)c(F)c3)c(CC(F)(F)F)o2)C1` (centres unmarked) [Example 8, N-(4-((2,2-difluorocyclopentyl)oxy)-3-fluorophenyl)-2-(3-methoxyazetidin-1-yl)-5-(2,2,2-trifluoroethyl)oxazole-4-carboxamide]: 1000 to 10000 nM; `O=C(Nc1ccc(OC2CCCC2(F)F)c(F)c1)c1nc(N2C3CCC2CC3)oc1CC(F)(F)F` (centres unmarked) [Example 9, 2-{7-azabicyclo[2.2.1]heptan-7-yl}-N-{4-[(2,2-difluorocyclopentyl)oxy]-3-fluorophenyl}-5-(2,2,2-trifluoroethyl)oxazole-4-carboxamide]: 1000 to 10000 nM.
Regarding `O=C(Nc1ccc(OC2CCCC2(F)F)c(F)c1)c1nc(N2CC3C(C2)C3(F)F)oc1CC(F)(F)F` (centres unmarked) [Example 10, 2-{6,6-difluoro-3-azabicyclo[3.1.0]hexan-3-yl}-N-{4-[(2,2-difluorocyclopentyl)oxy]-3-fluorophenyl}-5-(2,2,2-trifluoroethyl)oxazole-4-carboxamide], the EC50 was 1000 to 10000 nM.
Under `O=C(Nc1ccc(OC2CCCC2(F)F)c(F)c1)c1nc(N2CCCC23CC3)oc1CC(F)(F)F` (centres unmarked) [Example 11, N-(4-((2,2-difluorocyclopentyl)oxy)-3-fluorophenyl)-2-(4-azaspiro[2.4]heptan-4-yl)-5-(2,2,2-trifluoroethyl)oxazole-4-carboxamide] stands 1000 to 10000 nM; under `O=C(Nc1ccc(OC2CCCC2(F)F)c(F)c1)c1nc(N2CC3CCOC3C2)oc1CC(F)(F)F` (centres unmarked) [Example 12, N-(4-((2,2-difluorocyclopentyl)oxy)-3-fluorophenyl)-2-(hexahydro-5H-furo[2,3-c]pyrrol-5-yl)-5-(2,2,2-trifluoroethyl)oxazole-4-carboxamide], 1000 to 10000 nM; under `O=C(Nc1ccc(OC2CCCC2(F)F)c(F)c1)c1nc(N2CC3(CCOCC3)C2)oc1CC(F)(F)F` (centres unmarked) [Example 14, N-(4-((2,2-difluorocyclopentyl)oxy)-3-fluorophenyl)-2-(7-oxa-2-azaspiro[3.5]nonan-2-yl)-5-(2,2,2-trifluoroethyl)oxazole-4-carboxamide], 1000 to 10000 nM.
As to `O=C(Nc1ccc(OC2CCCC2(F)F)c(F)c1)c1nc(N2CC(F)(F)C2)oc1CC(F)(F)F` (centres unmarked) [Example 16, 2-(3,3-difluoroazetidin-1-yl)-N-{4-[(2,2-difluorocyclopentyl)oxy]-3-fluorophenyl}-5-(2,2,2-trifluoroethyl)oxazole-4-carboxamide], the EC50 was 10 to 1000 nM.
As for `O=C(Nc1ccc(OC2CCCC2(F)F)c(F)c1)c1nc(N2CC(C(F)(F)F)C2)oc1CC(F)(F)F` (centres unmarked) [Example 18, N-(4-((2,2-difluorocyclopentyl)oxy)-3-fluorophenyl)-5-(2,2,2-trifluoroethyl)-2-(3-(trifluoromethyl)azetidin-1-yl)oxazole-4-carboxamide], the EC50 was 10 to 1000 nM.
For `O=C(Nc1ccc(OC2CCCC2(F)F)c(F)c1)c1nc(N2CC3CCCC3C2)oc1CC(F)(F)F` (centres unmarked) [Example 23, N-(4-((2,2-difluorocyclopentyl)oxy)-3-fluorophenyl)-2-(hexahydrocyclopenta[c]pyrrol-2(1H)-yl)-5-(2,2,2-trifluoroethyl)oxazole-4-carboxamide], the EC50 was 10 to 1000 nM.
As to `CC(C)OC1CN(c2nc(C(=O)Nc3ccc(OC4CCCC4(F)F)c(F)c3)c(CC(F)(F)F)o2)C1` (centres unmarked) [Example 24, N-{4-[(2,2-difluorocyclopentyl)oxy]-3-fluorophenyl}-2-[3-(propan-2-yloxy)azetidin-1-yl]-5-(2,2,2-trifluoroethyl)oxazole-4-carboxamide], the EC50 was 1000 to 10000 nM.
As to `O=C(Nc1ccc(N2CCCCC2)c(F)c1)c1nc(N2CCC3(CC2)CS(=O)(=O)C3)oc1CC(F)(F)F` [Example 25, 2-(2,2-dioxo-2-thia-7-azaspiro[3.5]nonan-7-yl)-N-[3-fluoro-4-(piperidin-1-yl)phenyl]-5-(2,2,2-trifluoroethyl) oxazole-4-carboxamide], the EC50 is 10000 to 100000 nM.
On to `O=C(Nc1ccc(N2CCCCC2)c(F)c1)c1nc(N2C[C@H]3CCO[C@H]3C2)oc1CC(F)(F)F` [Example 26, 2-[(3aR,6aR)-hexahydro-5H-furo[2,3-c]pyrrol-5-yl]-N-[3-fluoro-4-(piperidin-1-yl)phenyl]-5-(2,2,2-trifluoroethyl)oxazole-4-carboxamide], for which the EC50 is 1000 to 10000 nM.
In the case of `O=C(Nc1ccc(N2CCCCC2)c(F)c1)c1nc(N2CCC3(CC3)C2)oc1CC(F)(F)F` [Example 27, 2-{5-azaspiro[2.4]heptan-5-yl}-N-[3-fluoro-4-(piperidin-1-yl)phenyl]-5-(2,2,2-trifluoroethyl)-1,3-oxazole-4-carboxamide], the EC50 was 1000 to 10000 nM.
In the case of `CC1CCCN1c1nc(C(=O)Nc2ccc(N3CCCCC3)c(F)c2)c(CC(F)(F)F)o1` (centres unmarked) [Example 29, N-(3-fluoro-4-(piperidin-1-yl)phenyl)-2-(2-methylpyrrolidin-1-yl)-5-(2,2,2-trifluoroethyl)oxazole-4-carboxamide], the EC50 is 1000 to 10000 nM.
On to `O=C(Nc1cc(F)c(OC2CC3C[C@H]3C2)c(F)c1)c1nc(N2CC3(C2)CC(F)(F)C3)oc1CC(F)(F)F` (stereo partly drawn) [Example 34, N-(4-(cis-bicyclo[3.1.0]hexan-3-yloxy)-3,5-difluorophenyl)-2-(6,6-difluoro-2-azaspiro[3.3]heptan-2-yl)-5-(2,2,2-trifluoroethyl)oxazole-4-carboxamide], for which the EC50 is 10 to 1000 nM.
For `O=C(Nc1cc(F)c(OC2CC3C[C@H]3C2)c(F)c1)c1nc(N2CCC3(COC3)C2)oc1CC(F)(F)F` (stereo partly drawn) [Example 35, N-(4-{cis-bicyclo[3.1.0]hexan-3-yloxy}-3,5-difluorophenyl)-2-{2-oxa-6-azaspiro[3.4]octan-6-yl}-5-(2,2,2-trifluoroethyl)oxazole-4-carboxamide], the EC50 was 10 to 1000 nM.
Consider `CC1(C)CN(c2nc(C(=O)Nc3cc(F)c(OC4CC5C[C@H]5C4)c(F)c3)c(CC(F)(F)F)o2)C1` (stereo partly drawn) [Example 37, N-(4-{cis-bicyclo[3.1.0]hexan-3-yloxy}-3,5-difluorophenyl)-2-(3,3-dimethylazetidin-1-yl)-5-(2,2,2-trifluoroethyl)oxazole-4-carboxamide], for which the EC50 was 10 to 1000 nM.
Under `O=C(Nc1cc(F)c(OC2CC3C[C@H]3C2)c(F)c1)c1nc(N2CC3CCCC3C2)oc1CC(F)(F)F` (stereo partly drawn) [Example 40, N-(4-{cis-bicyclo[3.1.0]hexan-3-yloxy}-3,5-difluorophenyl)-2-{octahydrocyclopenta[c]pyrrol-2-yl}-5-(2,2,2-trifluoroethyl)oxazole-4-carboxamide] stands 10 to 1000 nM; under `O=C(Nc1cc(F)c(OC2CC3C[C@H]3C2)c(F)c1)c1nc(N2CC3(CCCC3)C2)oc1CC(F)(F)F` (stereo partly drawn) [Example 41, N-(4-(cis-bicyclo[3.1.0]hexan-3-yloxy)-3,5-difluorophenyl)-2-(2-azaspiro[3.4]octan-2-yl)-5-(2,2,2-trifluoroethyl)oxazole-4-carboxamide], 10 to 1000 nM.
Consider `O=C(Nc1ccc(OCC(F)(F)F)c(F)c1)c1nc(N2CCCC2)oc1CC(F)(F)F` [Example 42, N-(3-fluoro-4-(2,2,2-trifluoroethoxy)phenyl)-2-(pyrrolidin-1-yl)-5-(2,2,2-trifluoroethyl)oxazole-4-carboxamide], for which the EC50 is 1000 to 10000 nM.
Under `COC1CCC(Oc2ccc(NC(=O)c3nc(N4CCCC4)oc3CC(F)(F)F)cc2F)C1` (centres unmarked) [Example 43, N-{3-fluoro-4-[(3-methoxycyclopentyl)oxy]phenyl}-2-(pyrrolidin-1-yl)-5-(2,2,2-trifluoroethyl)oxazole-4-carboxamide] stands 1000 to 10000 nM.
